# Measured values: paper PMC3873929, “Cellular Density Effect on RGD Ligand Internalization in Glioblastoma for MRI Application” (PLoS ONE, 2013)
# Several values for one entry are separate records, joined by “and”; a condition that tells them apart may be missing. Equal entries are not always repeated.
# What was measured:
# Assay type in all cases: cell-based, Human
# [1] = test system: U87 cells; test: T1-weighted MRI (2D FLASH) of U87 cells after uptake of contrast agent; details: U87 cells at 7*10^4 cell/cm^2, 400 µM, 4.7 T, unlabeled cells SNR 60
# Description: E-[c(RGDfK)2]-DOTA-Gd uptake by U87 cells was performed on cells platted at 7.10^4 cells/cm^2. After 24 h, the cells were then incubated for 4 h with 400 µM of E-[c(RGDfK)2]-DOTA-Gd or for 1 h with MnCl2 at 400 µM as positive contrast for the T1-weighted (T1-w) sequence. Then the medium was discarded and the cells were washed with RPMI. The cells were re-suspended at 2.10_6 cells in 100 µL of phosphate buffer saline (PBS) for each condition and mixed with 100 µL of agarose 2% (Sigma-Aldrich).
# MR images of cells trapped in agarose gel were acquired on a 4.7 T Biospec system (Bruker, Ettlingen, Germany). The system was equipped with a 6-cm diameter BG6 gradient system capable of 950 mT/m maximum strength. Imaging was performed with a birdcage resonator (35-mm diameter and 80-mm length) tuned at 200.3 MHz. 2D images were acquired with a T1-w sequence (FLASH sequence, TE/TR: 1,6/14 ms, flip angle: 60°, FOV: 25*25 mm, matrix:128*96, […], total acquisition time: 5 min 44 s).
# [2] = test system: U87 cells; test: Fluorescence microscopy of sub-cellular location of fluorescent RGD ligands
# Description: Protocols for microscopy were identical to those for flow cytometry. Cells were seeded on glass coverslips after collagen treatment as described above. After the different sets of incubations the cells were washed with RPMI and fixed with paraformaldehyde (4%, 20 min). Nuclei were then labeled with DAPI (0.01 mg/ml). After three washes, the coverslips were mounted on glass slides and observed using a Leica DM5500 B (magnification 63×, λexc: 480 nm, λem: 530 nm and λexc:360 nm λem: 470 nm for alexa fluor-488 and DAPI respectively).
# [3] = test system: U87 cells; test: Flow cytometry uptake with endocytosis pathway inhibitors (nystatin, amiloride, chloroquine); details: 1 h
# Description: (§1) Uptakes of E-[c(RGDfK)2]-Alexa488 and iRGD-alexa488 by U87 cells were compared for different cellular densities using flow cytometry. Twenty four multiwell plates (Becton-Dickinson, 2 cm^2/well), were pretreated with collagen (Sigma-Aldrich) (10 µg/cm^2). Then the cells were seeded during 24 h either at densities ranging from 8.10^3 to 10^5 cells/cm2 or at three typical densities being in the lowest, the median and the highest values of the previously mentioned density range. The cells were incubated 1 h with the fluorescent RGD ligands (E-[c(RGDfK)2]-Alexa488, 2 µM; iRGD-alexa488, 15 µM). Then the medium was discarded and the cells were washed with Roswell Park Memorial Institute Medium (RPMI, Gibco Corp). Thereafter the cells were re-suspended in RPMI at 100 cells/µl and analyzed by flow cytometry (Guava easyCyte flow cytometer/counter, Millipore, λexc: 488 nm, λem: 525 nm).
# The clathrin-mediated endocytosis and the caveola-dependent endocytosis were characterized by incubations with chloroquine (100 µM) and nystatin (30 µM), respectively. Contribution of macropinocytosis was studied following amiloride treatment (1 mM).
# (§2) All of these inhibitors and drugs were applied on the cells for 1 h simultaneously with the fluorescent RGD ligands. When specified, incubation of drugs begun 20 min before the incubation with the RGD ligands. All the reagents were from Sigma-Aldrich.
# [4] = test system: U87 cells; test: Flow cytometry uptake with cytoskeleton drugs (paclitaxel, cytoD, colchicine, nocodazole); details: 1 h
# Description: as §1
# The microtubule targeting was performed using paclitaxel (10 µM), colchicin (7.5 µM) and nocodazole (30 µM).
# as §2
# [5] = test system: U87 cells; test: Flow cytometry uptake of fluorescent RGD ligands versus cell density; details: 8*10^3 to 10^5 cells/cm^2, 1 h incubation, Alexa Fluor-488 conjugates (E-[c(RGDfK)2] 2 µM; iRGD 15 µM)
# Description: as §1
# [6] = test system: U87 cells; test: Flow cytometry uptake under different energy substrates and oxidative metabolism inhibitors
# Description: Human GBM cell line U87-MG from the American Type Culture Collection (ATCC, LGC standards, Middlesex, UK) was cultured in Dulbecco's modified eagles medium (DMEM, Gibco Corp) supplemented with 10% fetal calf serum (FCS, Gibco Corp), in a humidified atmosphere with 5% CO2 at 37°C. The characterization of the metabolism contribution was performed with DMEM without glucose and pyruvate (DMEM, Gibco Corp). Glucose or pyruvate were added when necessary at the concentration of 1 g/L and 0.11 g/L , respectively.
# as §1
# The oxidative metabolism was studied with oligomycine (20 µM) and rotenone (10 µM).
# as §2
# [7] = test system: U87 cells; test: T1-weighted MRI (3D FLASH) of U87 cells seeded at three densities and labeled with RGD-Gd; details: 400 µM
# Description: Seeded at three densities, cells were incubated with E-[c(RGDfK)2]-DOTA-Gd at 400 µM for 4 h. The same protocol to prepare cells trapped in agarose gel was used. 3D images of the RGD internalization were acquired with a T1-w sequence (FLASH sequence, TE/TR: 1,5/12 ms, flip angle: 20°, FOV: 30*25*20 mm, matrix:128*128*64, 6 averages, total acquisition time: 9 min 49 s).
compound,measurement,setting,value
"[Cl][Mn][Cl] [MnCl2, reference compound]",SNR of labeled U87 cells (T1-w MRI),"[1]; positive contrast control, 1 h incubation",100
CRGDK/RGPD/EC [iRGD-alexa488],Sub-cellular location of the fluorescent signal,"[2]; 1 h at 37°C, all studied cell densities, no inhibitor (iRGD-alexa488 15 µM)",most of the signal appeared intracellular
same,Membrane labeling,"[2]; 1 h at 37°C, no inhibitor (iRGD-alexa488 15 µM)",undetectable
same,Fluorescence location in the presence or not of nystatin,"[2]; nystatin (30 µM), data not shown",inside cytoplasmic vesicles
same,Sub-cellular location of fluorescence during inhibition of clathrin-mediated endocytosis,[2]; with chloroquine (100 µM),typical cytoplasmic membrane labeling
same,Effect of macropinocytosis inhibition (amiloride) on internalization,[3]; amiloride 1 mM,had no effect
same,"Decrease of uptake after chloroquine treatment, high density","[3]; chloroquine 100 µM, high density (95000 cell/cm^2 for E-[c(RGDfK)2], 75000 for iRGD), mean ± SEM, n≥3",53.9%±2.5%
same,"Decrease of uptake after chloroquine treatment, low density","[3]; chloroquine 100 µM, low density (15000 cell/cm^2 for E-[c(RGDfK)2], 7000 for iRGD), mean ± SEM, n≥3",42.4%±1.1% and 42%
same,"Decrease of uptake after chloroquine treatment, medium density","[3]; chloroquine 100 µM, medium density (50000 cell/cm^2 for E-[c(RGDfK)2], 35000 for iRGD), mean ± SEM, n≥3",48.2±0.2%
same,Effect of caveolin-dependent endocytosis inhibition (nystatin) on internalization,"[3]; nystatin 30 µM, all studied cell densities",did not alter
same,"Uptake results after colchicine treatment (strong decrease), high density","[4]; colchicine 7.5 µM, high density (80000 cell/cm^2 for E-[c(RGDfK)2], 70000 for iRGD), mean ± SEM, n≥3",54.8%±0.8%
same,"Uptake results after colchicine treatment (strong decrease), low density","[4]; colchicine 7.5 µM, low density (10000 cell/cm^2), mean ± SEM, n≥3",55.0%±0.3%
same,"Uptake results after colchicine treatment (strong decrease), medium density","[4]; colchicine 7.5 µM, medium density (40000 cell/cm^2 for E-[c(RGDfK)2], 35000 for iRGD), mean ± SEM, n≥3",53.1%±0.1%
same,"cytoD effect on internalization (decrease), high density","[4]; cytoD 20 µM, high density (80000 cell/cm^2 for E-[c(RGDfK)2], 70000 for iRGD), mean ± SEM, n≥3",29.0%±2.1%
same,"cytoD effect on internalization (decrease), low density","[4]; cytoD 20 µM, low density (10000 cell/cm^2), mean ± SEM, n≥3",29.7%±1.3%
same,"cytoD effect on internalization (decrease), medium density","[4]; cytoD 20 µM, medium density (35000 cell/cm^2 for iRGD), mean ± SEM, n≥3",23.5%±1.3%
same,Effect of paclitaxel (stabilization of polymerized microtubules) on internalization,[4]; paclitaxel 10 µM,did not alter
same,Increase of cell labeling (MFI) at the highest densities compared to the lowest,[5],30%
same,Internalization without glucose and with or without pyruvate (conditions 2 and 3),"[6]; DMEM without glucose, no oligomycin, remained cell density dependent",not altered
same,Internalization with oligomycin in presence of glucose and pyruvate (condition 4),"[6]; oligomycin 20 µM, glucose 1 g/L, pyruvate 0.11 g/L",decreased more for the lowest cell densities than for the highest ones
same,Internalization without glucose in the presence of pyruvate and oligomycin (condition 5),"[6]; oligomycin 20 µM, regardless of the cell density",strong inhibition
same,Internalization with rotenone compared with oligomycin,"[6]; rotenone 10 µM, data not shown",comparable
E-[c(RGDfK)2]-DOTA-Gd (bicyclic or more) [RGD-gadolinium chelate made by mixing E-[c(RGDfK)2]-DOTA with GdCl2; MRI contrast agent],"SNR values for low, medium and high density compared with each other",[7],not significantly different
same,SNR of the different cell densities compared with SNR of control,[7]; p<0.05,significantly higher
same,"SNR (T1-w MRI), highest cell density","[7]; highest density, 4 h, 3D FLASH 4.7 T",16.5
same,SNR of labeled U87 cells (T1-w MRI),[1]; 4 h incubation,70
